Experimental data reported in PubChem BioAssay AID2060360 (Molecular Pharmacology Branch, DTP, NCI, 2025).
“And” between values parts separate entries of the source, which are not always exact repeats. Identical values can stand only once.

System: 282377-053-R-J1-PDC tumor spheroids, viability
Test: Anticancer human tumor 282377-053-R-J1-PDC patient-derived colon adenocarcinoma cell line growth inhibition [TAK]
Settings: spheroids with HUVEC and MSC; for viability, T/C: stronger effect = lower value
Text: Combinatorial screen of targeted agents with TAK-243 and ipatasertib in multi-cell type tumor spheroids
A high-throughput screen of multi-cell type tumor spheroids was designed to identify active combinations of targeted small molecules and TAK-243 or ipatasertib. Complex spheroids include a stromal component modeled by human endothelial cells (HUVEC) and fibroblasts modeled by human mesenchymal stem cells (MSCs). The concentration ranges selected for each drug and investigational agent were based upon clinically achievable concentrations if the clinical Cmax of the agent was known.
Compounds. The drugs and investigational agents: TAK-243 (785004), ipatasertib (767898), everolimus (733504), selumetinib (741078), bortezomib (756655), trametinib (758246), ixazomib (758254), vemurafenib (761431), dabrafenib (764134), sapanisertib (764658), alpelisib (765974), and copanlisib (816437), were obtained from the National Cancer Institute (NCI) Developmental Therapeutics Program Chemical Repository. The FDA-approved anticancer drug set is available from the NCI Developmental Therapeutics Program. […] The stock solutions were prepared in dimethyl sulfoxide (DMSO, Sigma-Aldrich, St. Louis, MO, cat. D2650) at 800-fold the tested concentration and stored at -70 degrees C prior to their use. All drugs and investigational agents were tested over a range starting from a high concentration at or near the clinical Cmax and decreasing in half-log increments. If the clinical Cmax for an agent had not been determined, the highest concentration tested was 10 microM.
NCI60 Cell Culture. NCI60 cell lines were obtained from the NCI Developmental Therapeutics Program Tumor Repository. For each lot of cells, the Repository performed Applied Biosystems AmpFLSTR Identifiler testing with PCR amplification to confirm consistency with the published Identifier STR profile for each cell line. Cells were kept in continuous culture for no more than 20 passages. The optimal seeding densities for each of the cell lines at each time point assessed were determined prior to performing the concentration response studies. Briefly, the NCI60 human tumor lines were grown as monolayers in RPMI 1640 medium supplemented with 10% FBS and 2 mmol/L L-glutamine.
An additional 2 lines were from the NCI60 cell line panel including melanomas, MALME-3M and SK-MEL-2. Pooled donor human umbilical vein endothelial cells (HUVEC, Lonza, cat. CC-2519) and human mesenchymal stem cells (hMSC, Lonza, cat. PT-2501) were purchased from Lonza (Walkersville, MD).
PDMR cell lines were grown in complete medium (DC medium): Dulbecco's modified Eagle's medium (DMEM)/F12 supplemented with 5% fetal bovine serum (FBS), 2 mM L-glutamine, 100 U/mL penicillin and 100 µg/ml streptomycin, 0.4 µg/ml hydrocortisone, 10 ng/ml epidermal growth factor (EGF) recombinant human protein, 24 µg/mL adenine, and 0.1 mg/mL primocin. During culture from frozen stock vials, PDMR cells were cultured in the same medium containing 10 µM Y-27632 (see Table 3). The PDCs were cultured in complete DMEM/F12 media without 10 microM Y-27632 dihydrochloride for at least two passages prior to the screen. The pooled donor HUVEC and hMSC were cultured in endothelial cell growth medium 2 (PromoCell, Heidelberg, Germany, cat. C-22011) and mesenchymal stem cell growth medium 2 (PromoCell, cat. C-28009), respectively. For all experiments, HUVEC and hMSC were used at passages </=5.
For the pre-screen, cell seeding densities were determined from a titration spanning the range from 5,000 to 313 cells per well. The mct-spheroids including 60% malignant cells, 25% HUVEC and 15% MSC dispensed as a mixture into U-bottom Ultra-Low Attachment 384-well plates (Corning, NY)
High-throughput Drug Combination Screening.
Prior to their inoculation into 384-well plates, malignant cells, HUVEC, and hMSC were removed from T flasks using TrypLE express (Thermo Fisher Scientific, cat. 12605036) and harvested by centrifugation for 5 min at 233 x g. […]
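Note: spheroids exposed to drugs for seven days before readout.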

Structure (SMILES): CC(=O)Nc1cccc(-n2c(=O)n(C3CC3)c(=O)c3c(Nc4ccc(I)cc4F)n(C)c(=O)c(C)c32)c1 + CC(C)NCC(C(=O)N1CCN(c2ncnc3c2C(C)CC3O)CC1)c1ccc(Cl)cc1
- IC50 (curve of first compound, second compound 0.3 µM): 2.49 nM
- IC50 (curve of first compound, second compound 0.949 µM): 1.95 nM
- IC50 (curve of first compound, second compound 3 µM): 1.44 nM
- IC50 (curve of first compound, second compound 9.49 µM): 1.54 nM
- IC50 (curve of first compound, second compound 30 µM): 0.516 nM
- viability, T/C (second compound 0.3 µM, first compound 94.9 pM): 96%
- viability, T/C (second compound 0.3 µM, first compound 0.0003 µM): 79%
- viability, T/C (second compound 0.3 µM, first compound 0.000949 µM): 67.5%
- viability, T/C (second compound 0.3 µM, first compound 0.003 µM): 49.2%
- viability, T/C (second compound 0.3 µM, first compound 0.00949 µM): 24.9%
- viability, T/C (second compound 0.3 µM, first compound 0.03 µM): 12.4%
- viability, T/C (second compound 0.949 µM, first compound 94.9 pM): 86.8%
- viability, T/C (second compound 0.949 µM, first compound 0.0003 µM): 76.9%
- viability, T/C (second compound 0.949 µM, first compound 0.000949 µM): 55.2%
- viability, T/C (second compound 0.949 µM, first compound 0.003 µM): 49.3%
- viability, T/C (second compound 0.949 µM, first compound 0.00949 µM): 24.8%
- viability, T/C (second compound 0.949 µM, first compound 0.03 µM): 11.8%
- viability, T/C (second compound 3 µM, first compound 94.9 pM): 78.2%
- viability, T/C (second compound 3 µM, first compound 0.0003 µM): 70.6%
- viability, T/C (second compound 3 µM, first compound 0.000949 µM): 53.6%
- viability, T/C (second compound 3 µM, first compound 0.003 µM): 40.8%
- viability, T/C (second compound 3 µM, first compound 0.00949 µM): 26.7%
- viability, T/C (second compound 3 µM, first compound 0.03 µM): 13.7%
- viability, T/C (second compound 9.49 µM, first compound 94.9 pM): 75.4%
- viability, T/C (second compound 9.49 µM, first compound 0.0003 µM): 71.7%
- viability, T/C (second compound 9.49 µM, first compound 0.000949 µM): 56.8%
- viability, T/C (second compound 9.49 µM, first compound 0.003 µM): 38.4%
- viability, T/C (second compound 9.49 µM, first compound 0.00949 µM): 25.9%
- viability, T/C (second compound 9.49 µM, first compound 0.03 µM): 12.4%
- viability, T/C (second compound 30 µM, first compound 94.9 pM): 64%
- viability, T/C (second compound 30 µM, first compound 0.0003 µM): 58.6%
- viability, T/C (second compound 30 µM, first compound 0.000949 µM): 41.6%
- viability, T/C (second compound 30 µM, first compound 0.003 µM): 27%
- viability, T/C (second compound 30 µM, first compound 0.00949 µM): 22.9%
- viability, T/C (second compound 30 µM, first compound 0.03 µM): 12.3%

Structure (SMILES): Cn1cnc2c(F)c(Nc3ccc(Br)cc3Cl)c(C(=O)NOCCO)cc21
- viability, T/C (compound 0.00949 µM): 89.8% and 85.2%
- viability, T/C (compound 0.03 µM): 88.6% and 82.3%
- viability, T/C (compound 0.0949 µM): 79% and 71.6%
- viability, T/C (compound 0.3 µM): 76.2% and 72.7%
- viability, T/C (compound 0.949 µM): 46.9% and 36.5%
- viability, T/C (compound 3 µM): 21.5% and 17.7%
- IC50 (curve of compound): 867 nM and 611 nM

Structure (SMILES): COC1CC2CCC(C)C(O)(O2)C(=O)C(=O)N2CCCCC2C(=O)OC(C(C)CC2CCC(OCCO)C(OC)C2)CC(=O)C(C)C=C(C)C(O)C(OC)C(=O)C(C)CC(C)C=CC=CC=C1C (centres undefined)
- viability, T/C (compound 0.000316 µM): 101% and 99.3%
- viability, T/C (compound 0.001 µM): 101% and 97.3%
- viability, T/C (compound 0.00316 µM): 97.6% and 98.6%
- viability, T/C (compound 0.01 µM): 102% and 103%
- viability, T/C (compound 0.0316 µM): 94.2% and 95.4%
- viability, T/C (compound 0.1 µM): 101% and 97.8%
- IC50 (curve of compound): > 100 nM
